Key:
Assay type in all cases: in vivo
[1] = tested on: Pennlinks creeping bentgrass maintained as a golf fairway; assay: Phytotoxic injury rating, fairway creeping bentgrass (Example 15)
Source text: (§1) In this Example, the effect of a fertilizer comprising lysine on cool season fairway turfgrass growth was examined. The effects of lysine (HCl) and LIQUID LYSINE on a common type of golf course fairway variety turfgrass (Pennlinks creeping bentgrass maintained as a golf fairway) were compared with those of urea, Milorganite and a blended fertilizer (a blend of methylene urea and urea in an approximately 1:1 ratio).
Fifteen fertilizer treatments comprising three concentrations of each fertilizer composition (Milorganite (N—P—K, 6-2-0), urea (N—P—K, 46-0-0), a blended fertilizer, LIQUID LYSINE (N—P—K, 10-2-1), and lysine (HCl) (N—P—K, 15-2-1)) were prepared and applied to 3 replications of a well established Pennlinks creeping bentgrass maintained as a golf fairway grass. The urea, lysine (HCl), and LIQUID LYSINE were dissolved/suspended in 1.5 gal water prior to application. […] The urea, LIQUID LYSINE and lysine (HCl) were applied as foliar liquids, while Milorganite and the blended fertilizer were applied as granular fertilizers. Plot size was 4 ft×8 ft laid out in a replicated complete block design. Plots were mowed at 0.5 inches before fertilizer application and mowed three times per week to 0.5 inch height. Grass clippings were not removed from the plots and no supplemental cultural maintenance was applied. Irrigation (0.15 inch) was applied following application and every other day thereafter. Plots were rated for turfgrass quality (scale of 1-9 where 9=dark green turf, 1=dead/brown turf, and 6=minimally acceptable turf and phytotoxic injury (scale of 0-9 where 9=significant foliar injury and 2=minimally objectional foliar injury) throughout the study period. Quality was measured prior to application (day 0) and day 37, day 70 and day 95 after application. Injury was measured on day 37, day 70 and day 95 after application. All data was subject to statistical analysis and significant means were determined. Average turfgrass quality ratings for the treatments are presented in Table 24.

[2] = tested on: Pennlinks creeping bentgrass for greens; assay: Turfgrass quality rating, greens creeping bentgrass (Example 16); conditions: scale of 1-9
Source text: as §1, with “greens quality” for “fairway”, “greens quality” for “fairway variety”, “for greens, mown at 0.1875 in height of cut)” for “maintained as a golf fairway)”
(§2) Fifteen fertilizer treatments comprising three concentrations of each fertilizer composition (Milorganite (N—P—K, 6-2-0), urea (N—P—K, 46-0-0), a blended fertilizer, LIQUID LYSINE N—P—K, 10-2-1), and lysine (HCl) (N—P—K, 15-2-1)) were prepared and applied to 3 replications of well established Pennlinks creeping bentgrass mown to 0.1875 in height cut. The urea, lysine (HCl), and LIQUID LYSINE were dissolved/suspended in 1.5 gal water prior to application. Each fertilizer treatment was applied in concentrations of 0.125 lb N/1000 ft^2/week, 0.250 lb N/1000 ft^2/week and 0.750 lb N/1000 ft^2/week. The urea, LIQUID LYSINE and lysine (HCl) were applied as foliar liquids, while Milorganite and blended fertilizer were applied as granular fertilizers. Plot size was 4 ft×8 ft laid out in a replicated complete block design. Plots were mowed at 0.1875 inches height before fertilizer application and mowed five times per week to 0.1875 inch height. Grass clippings were removed from the plots after each mowing. Irrigation (0.15 inch) was applied following application and daily thereafter. Plots were rated for turfgrass quality (scale of 1-9 where 9=dark green turf, 1=dead/brown turf, and 6=minimally acceptable turf) and phytotoxic injury (scale of 0-9 where 9=significant foliar injury and 2=minimally objectionable foliar injury) throughout the study period. Quality was measured prior to application (day 0) and day 37, day 70 and day 95 after application. Injury was measured on day 37, day 70 and day 95 after application. Ai) additional set of turfgrass plots were fertilized with three treatments of a soy concentrate fertilizer with the same application rates and methods. The quality and phytotoxic injury of the soy concentrate fertilizer plots were measured on day 95. All data was subject to statistical analysis and significant means were determined.

[3] = tested on: Pennlinks creeping bentgrass for greens; assay: Phytotoxic injury rating, greens creeping bentgrass (Example 16)
Source text: as §1, with “greens quality” for “fairway”, “greens quality” for “fairway variety”, “for greens, mown at 0.1875 in height of cut)” for “maintained as a golf fairway)”
as §2

[4] = Weekly Rate 0.5 lbs N/1000 ft^2, Day 37
[5] = Weekly Rate 0.5 lbs N/1000 ft^2, Day 70
[6] = Weekly Rate 0.5 lbs N/1000 ft^2, Day 95
[7] = Weekly Rate 1.0 lbs N/1000 ft^2, Day 37
[8] = Weekly Rate 1.0 lbs N/1000 ft^2, Day 70
[9] = Weekly Rate 1.0 lbs N/1000 ft^2, Day 95
[10] = Weekly Rate 3.0 lbs N/1000 ft^2, Day 37
[11] = Weekly Rate 3.0 lbs N/1000 ft^2, Day 70
[12] = Weekly Rate 3.0 lbs N/1000 ft^2, Day 95
[13] = Weekly Rate 0.125 lbs N/1000 ft^2, Day 0
[14] = Weekly Rate 0.125 lbs N/1000 ft^2, Day 37
[15] = Weekly Rate 0.125 lbs N/1000 ft^2, Day 70
[16] = Weekly Rate 0.125 lbs N/1000 ft^2, Day 95
[17] = Weekly Rate 0.25 lbs N/1000 ft^2, Day 0
[18] = Weekly Rate 0.25 lbs N/1000 ft^2, Day 37
[19] = Weekly Rate 0.25 lbs N/1000 ft^2, Day 70
[20] = Weekly Rate 0.25 lbs N/1000 ft^2, Day 95
[21] = Weekly Rate 0.75 lbs N/1000 ft^2, Day 0
[22] = Weekly Rate 0.75 lbs N/1000 ft^2, Day 37
[23] = Weekly Rate 0.75 lbs N/1000 ft^2, Day 70
[24] = Weekly Rate 0.75 lbs N/1000 ft^2, Day 95

Row | Compound | Injury Rating - Fairway Bentgrass [1, 4] [ab] | Injury Rating - Fairway Bentgrass [1, 5] | Injury Rating - Fairway Bentgrass [1, 6] [bc] | Injury Rating - Fairway Bentgrass [1, 7] | Injury Rating - Fairway Bentgrass [1, 8] | Injury Rating - Fairway Bentgrass [1, 9] | Injury Rating - Fairway Bentgrass [1, 10] | Injury Rating - Fairway Bentgrass [1, 11] | Injury Rating - Fairway Bentgrass [1, 12] | Quality Rating - Greens Bentgrass [2, 13] | Quality Rating - Greens Bentgrass [2, 14] | Quality Rating - Greens Bentgrass [2, 15] | Quality Rating - Greens Bentgrass [2, 16] | Quality Rating - Greens Bentgrass [2, 17] | Quality Rating - Greens Bentgrass [2, 18] | Quality Rating - Greens Bentgrass [2, 19] [bc] | Quality Rating - Greens Bentgrass [2, 20] [ab] | Quality Rating - Greens Bentgrass [2, 21] | Quality Rating - Greens Bentgrass [2, 22] | Quality Rating - Greens Bentgrass [2, 23] [a] | further results
1 | NC(N)=O [Urea, urea, reference compound] | 1.3 | 6.3 | 2.0 | 1.3ab | 6.0 | 1.3c | 1.0b | 5.7 | 4.3a | 4.3de | 4.7ef | 5.7c | 5.7b | 5.0bc | 6.3bc | 6.0 | 6.0 | 5.3b | 8.0a | 7.0 | Quality Rating - Greens Bentgrass [2, 24]: 6.7ab; Injury Rating - Greens Bentgrass [3, 14]: 1.0b; Injury Rating - Greens Bentgrass [3, 15]: 1.3; Injury Rating - Greens Bentgrass [3, 16]: 3.0ab; Injury Rating - Greens Bentgrass [3, 18]: 1.0b; Injury Rating - Greens Bentgrass [3, 19]: 1.0; Injury Rating - Greens Bentgrass [3, 20]: 2.0ab; Injury Rating - Greens Bentgrass [3, 22]: 1.0b; Injury Rating - Greens Bentgrass [3, 23]: 1.0; Injury Rating - Greens Bentgrass [3, 24]: 2.7ab
2 | Cl.NCCCC[C@H](N)C(=O)O [Lys (HCl) 15% N, L-lysine monohydrochloride] | 1.3 | 5.7 | 2.0 | 1.0b | 5.0 | 3.0abc | 2.0a | 4.7 | 2.0bc | 4.7cd | 5.0de | 6.0bc | 6.0ab | 4.7cd | 6.0bcd | 6.0 | 6.3 | 6.0a | 7.0ab | 7.0 | Quality Rating - Greens Bentgrass [2, 24]: 7.0a; Injury Rating - Greens Bentgrass [3, 14]: 1.0b; Injury Rating - Greens Bentgrass [3, 15]: 1.0; Injury Rating - Greens Bentgrass [3, 16]: 2.3ab; Injury Rating - Greens Bentgrass [3, 18]: 1.0b; Injury Rating - Greens Bentgrass [3, 19]: 1.0; Injury Rating - Greens Bentgrass [3, 20]: 2.7ab; Injury Rating - Greens Bentgrass [3, 22]: 2.0a; Injury Rating - Greens Bentgrass [3, 23]: 1.3; Injury Rating - Greens Bentgrass [3, 24]: 2.3ab

From US7811352B2, “Fertilizer compositions and methods of using” (priority 2005, dated 2010)
